Reference: paper PMC5479785, “Tandem malonate-based glucosides (TMGs) for membrane protein structural studies” (Scientific Reports, 2017)

Columns and labels:
MelBSt [1] = molecular target: T1, MelBSt (Salmonella enterica, UniProt P30878); assay: Trp to D2G FRET in detergent extract of membrane vesicles; type: biochemical; conditions: 10 μM D2G, 100 mM KPi, 100 mM NaCl, pH 7.5, DDM; fluorescent ligand
T1 construct: gene melB; wild type, C-terminal 10-His tag, plasmid pK95ΔAHB/WT MelBSt/CH10; detergent extract of RSO vesicles of E. coli DW2
T1 sequence (P30878 whole entry): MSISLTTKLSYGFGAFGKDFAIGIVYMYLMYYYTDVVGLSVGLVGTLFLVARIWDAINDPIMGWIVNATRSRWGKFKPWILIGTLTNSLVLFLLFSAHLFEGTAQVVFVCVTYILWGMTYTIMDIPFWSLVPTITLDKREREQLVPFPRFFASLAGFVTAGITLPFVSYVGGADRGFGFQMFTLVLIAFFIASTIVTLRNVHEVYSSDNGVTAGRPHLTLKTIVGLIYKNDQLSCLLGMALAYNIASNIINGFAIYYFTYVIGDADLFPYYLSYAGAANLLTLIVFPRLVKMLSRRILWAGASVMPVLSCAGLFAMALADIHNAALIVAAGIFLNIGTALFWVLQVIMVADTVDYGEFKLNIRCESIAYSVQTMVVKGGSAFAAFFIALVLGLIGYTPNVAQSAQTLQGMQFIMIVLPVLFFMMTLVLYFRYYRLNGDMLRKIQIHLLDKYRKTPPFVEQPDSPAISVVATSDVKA

MelBEc [2] = molecular target: T2, MelBEc (Escherichia coli, UniProt P02921); assay: as above; type: biochemical; conditions: 10 μM D2G, 100 mM KPi, 100 mM NaCl, pH 7.5, TMG-A12 or TMG-A13; fluorescent ligand
T2 construct: gene melB; expressed in E. coli DW2 (ΔmelB ΔlacZY); detergent extract of RSO membrane vesicles
T2 sequence (P02921 2-473): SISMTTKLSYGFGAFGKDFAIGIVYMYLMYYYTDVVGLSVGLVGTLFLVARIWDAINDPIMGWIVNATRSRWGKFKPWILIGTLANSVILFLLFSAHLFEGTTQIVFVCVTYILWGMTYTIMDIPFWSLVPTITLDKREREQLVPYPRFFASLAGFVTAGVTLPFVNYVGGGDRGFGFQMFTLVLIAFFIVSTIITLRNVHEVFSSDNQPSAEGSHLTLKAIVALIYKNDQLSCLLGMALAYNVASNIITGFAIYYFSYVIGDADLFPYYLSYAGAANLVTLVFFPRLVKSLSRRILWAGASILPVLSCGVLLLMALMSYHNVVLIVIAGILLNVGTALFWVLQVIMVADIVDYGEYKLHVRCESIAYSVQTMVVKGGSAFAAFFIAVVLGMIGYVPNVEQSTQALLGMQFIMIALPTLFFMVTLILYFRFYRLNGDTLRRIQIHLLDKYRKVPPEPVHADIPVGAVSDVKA

MelBEc [3] = molecular target: T2, MelBEc; assay: reversal of Trp to D2G FRET by displacement; type: biochemical; conditions: excess melibiose against 10 μM D2G, 100 mM KPi, 100 mM NaCl, pH 7.5, TMG-A12 or TMG-A13; competitive
MelBSt [4] = molecular target: T1, MelBSt; assay: reversal of Trp to D2G FRET by displacement; type: biochemical; conditions: excess melibiose against 10 μM D2G, 100 mM KPi, 100 mM NaCl, pH 7.5, DDM; competitive
β2AR = molecular target: T3, β2AR (Homo sapiens, UniProt P07550); assay: radioligand binding, G-50 column separation; conditions: 10 nM [3H]-DHA, 20 mM HEPES pH 7.5, 100 mM NaCl, 0.5 mg/mL BSA, DDM or TMG detergent; antagonist; labelled compound
T3 construct: gene ADRB2; expressed in Sf9 insect cells (baculovirus), purified in DDM
T3 sequence (P07550 whole entry): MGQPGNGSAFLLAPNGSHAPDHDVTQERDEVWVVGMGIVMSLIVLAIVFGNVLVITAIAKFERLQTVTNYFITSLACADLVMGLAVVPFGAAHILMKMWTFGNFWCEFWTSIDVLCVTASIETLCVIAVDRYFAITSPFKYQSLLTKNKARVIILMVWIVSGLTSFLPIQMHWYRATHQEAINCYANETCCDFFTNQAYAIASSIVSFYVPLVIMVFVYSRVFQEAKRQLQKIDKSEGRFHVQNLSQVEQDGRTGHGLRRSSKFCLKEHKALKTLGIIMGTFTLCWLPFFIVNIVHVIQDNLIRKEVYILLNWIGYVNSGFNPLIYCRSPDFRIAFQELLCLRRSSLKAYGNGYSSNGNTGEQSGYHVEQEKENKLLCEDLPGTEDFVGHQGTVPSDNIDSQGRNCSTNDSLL

CN(C)c1cccc2c(S(=O)(=O)NCCS[C@@H]3O[C@H](CO)[C@H](O)[C@H](O)[C@H]3O)cccc12 [D2G, 2′-(N-dansyl)aminoalkyl-1-thio-β-D-galactopyranoside]
Trp→D2G FRET (MelBSt [1]): a functional MelBSt gives an increase in fluorescence intensity induced by Trp→ D^2G FRET
Trp→D2G FRET (MelBEc [2]): TMG-A12 or TMG-A13 resulted in a functional MelBEc as demonstrated by large changes in FRET signal

OC[C@H]1O[C@H](OC[C@H]2OC(O)[C@H](O)[C@@H](O)[C@@H]2O)[C@H](O)[C@@H](O)[C@H]1O (some centres unmarked) [melibiose]
FRET reversal (MelBEc [3]): reversed by adding a non-fluorescent sugar substrate (i.e., melibiose)
FRET reversal (MelBSt [4]): Upon addition of melibiose, the DDM-solubilized MelBSt gave a large reversal in the FRET signal

CCCc1ccccc1OCC(O)CNC(C)C (centres unmarked) [[3H]-dihydroalprenolol]
[3H]-DHA binding (β2AR): receptor stability was assessed via a ligand binding assay using the antagonist, [^3H]-dihydroalprenolol
